Data as given in US20260297508A1, “MODULATORS OF PROTEIN SECRETION” (SANOFI, priority 2023, published 2026).

Tests used:
[1] = test system: biotin-induced antibody release, U2OS clone #7 cells; assay: High-throughput RUSH screen: biotin-induced cytoplasmic GFP signal decay (antibody release), U2OS clone #7; type: cell-based, human; settings: for secretion activator at both low and high concentration (consistently decreased fluorescent signal, among 20 best activators): Prestwick library; for decrease of intracytoplasmic GFP fluorescence signal (biotin-stimulated RUSH system): screening campaigns, summary
Procedure: FIGS. 4A-4C show the high-throughput screening of chemical compound libraries for the identification of modulators of protein secretion. […] U2OS clone #7 is plated in 384-well plates and incubated for 24 h before treatment with each compound of the Prestwick, ICCB Known Bioactives, or Autophagy Compound Library at 2 concentrations, low and high (with a 10-fold difference). […] The results of the Prestwick library screening at the low drug concentration are plotted. Brefeldin A was used as a positive control of the inhibition of secretion. The compounds causing a cytoplasmic GFP intensity below that observed for biotin-only treated cells are potential enhancers of protein secretion.
U2OS cells were transfected with the streptavidin-KDEL plasmid using Lipofectamine 2000 (Thermo Fisher Scientific) and selected in medium supplemented with G418 (400 μg/mL, Gibco-Invitrogen) for 2 weeks. Limiting dilution in 96-well plates was used for single cell isolation from the selected pool. Clones were amplified and selected based on streptavidin immunofluorescence. Clone #BD6 showing the highest streptavidin expression was further expanded in medium supplemented with G418 (200 μg/mL) and transfected with the anti-PD-L1 IgG RUSH plasmid using Lipofectamine 2000 and selected in medium supplemented with G418 (200 μg/mL) and hygromycin (100 μg/mL, Santa Cruz Biotechnology) for 2 weeks. Limiting dilution in 96-well plates was used for single cell isolation from clone #BD6-derived selected pool. Clones were amplified and selected based on GFP fluorescence and clone #7 was selected for further characterization and screening campaigns.
U2OS clone #7 cells were seeded in black 384-well imaging plates (Greiner bio one), 2,000 cells/well, and incubated for 24 h at 37° C. in a humidified incubator with 5% CO2. Cells were treated on the next day with the compounds from either the Prestwick library at […], the ICCB Known Bioactives library at 1/100^e or 1/1000^e, or the autophagy compound library at 10 μM or 1 μM for 4 h. […] Cells were then fixed as described above and processed for subsequent automated image acquisition using a robot-assisted IXM XL BioImager (Molecular Devices, Sunnyvale, CA, USA) equipped with a Sola light source (Lumencor, Beaverton, OR, USA), adapted excitation and emission filters (Semrock) a 16-bit monochrome sCMOS PCO.edge 5.5 camera (PCO, Kelheim, Germany). A 20× PlanAPO objective (Nikon, Tokyo, Japan) was used to acquire a minimum of 4 view fields in each well. The acquired images were processed using the open-access R software (https://www.r-project.org) with the help of freely available packages EBImage (available on the Bioconductor repository https://www.bioconductor.org), and RBioFormats (https://github.com/aoles/RBioFormats), and the custom packages MetaxpR (https://github.com/asauvat/MetaxpR) and MorphR (https://github.com/kroemerlab/MorphR). Nuclei were first detected using Hoechst 33342 signal and used as a marker to detect cytoplasmic areas based on GFP signal, allowing for the evaluation of cytoplasmic GFP intensity. Data were thereafter extracted and statistically evaluated using R (https://www.r-project.org). Data were normalized using negative and positive controls, reduced and transformed into a Z-score. The experiments were repeated manually at low scale with selected drugs to confirm their effects on secretion, in this second set of assays, U2OS clone #7 cells incubated with secretion inhibitors were fixed and stained with Hoechst as described above for imaging and viability determination based on cell counts.
We next sought to use clone #7 in screening campaigns for the identification of drugs capable of enhancing or inhibiting antibody secretion. […] Cell counting was facilitated by nuclear counterstaining with Hoechst 33324 in order to assess viability and distinguish drug effects on the secretion kinetics from direct cytotoxicity and select relevant drugs for further characterization. […]

[2] = test system: RUSH antibody secretion, U2OS clone #7 cells; assay: ELISA on immobilized PD-L1: RUSH antibody titer in supernatant of treated clone #7 cells; type: cell-based, human; settings: PD-L1 binding ELISA
Procedure: FIGS. 7A and 7B show validation of inhibitors of protein secretion. […] Clone #7 cells were treated with the indicated compounds and supernatants were assayed for PD-L1 binding. Brefeldin A was used as a protein secretion inhibitor positive control. […] Hoechst 33324 fluorescence was measured, which enabled to number adherent living cells in each well.
U2OS clone #7 cells were seeded in 6-well plates and kept for 24 h at 37° C. in a humidified incubator with 5% CO2. The next day, the supernatants were removed, cells were rinsed with 37° C. pre-heated PBS and new medium containing the chemical treatment was added for 4 h. […] Then supernatants were collected and used for the ELISA assay as follows. MaxiSorp 96-well plates (Thermo Fisher Scientific) were coated with 0.5 μg/mL hFc-human-PD-L1 (R&D Systems, Minneapolis, MN) in PBS for 5.5 h at RT. Coating solution was then removed and 2% BSA/PBS blocking solution was added overnight at 4° C. The next day, wells were washed 3 times with 0.5% BSA/0.05% Tween-20/PBS solution. Supernatants were added after a ⅓ dilution in 0.5% BSA/0.05% Tween-20/PBS, for 2.3 h at RT. Wells were washed 3 times with 0.5% BSA/0.05% Tween-20/PBS solution. Anti-human kappa light chain HRP-coupled antibody was added diluted in 0.5% BSA/0.05% Tween-20/PBS at 1/4000^e for 2.3 h at RT. Wells were washed 3 times with 0.5% BSA/0.05% Tween-20/PBS solution before incubation with substrate reagents pack (R&D Systems) for 15 min in the dark. Fifty μL of STOP solution (R&D Systems) were then added to each well and the absorbance in each well was subsequently measured at 450 nm, and 635 nm for background subtraction, using a VICTOR™ X4 (PerkinElmer, Waltham, MA).
Medium- and high-throughput screenings often yield false positive and negative hits, calling for independent validation in low-throughput experiments with orthogonal technologies. In a first round of experiments, we evaluated the effects of shortlisted compounds with potential antibody secretion enhancer activity. Compounds identified in the screening campaigns were tested again on clone #7 at a low concentration (FIG. 6A) or a ten-fold higher concentration (FIG. 6B) for their ability to increase antibody secretion. […] We further characterized these hits in an PD-L1 binding ELISA.

SCAP = settings: cited from earlier work
[3] = test system: biotin-induced antibody release, U2OS clone #7 cells; assay: Low-throughput validation by imaging of the biotin-induced antibody release (cytoplasmic GFP), clone #7; type: cell-based, human; settings: FIG. 5C
Procedure: FIGS. 5A-5C show selection of potential enhancers of protein secretion. FIGS. 5A and 5B) show dot plot representations of drugs efficiency based on their Z-scores measured at low and high drug concentration (FIG. 5A, Prestwick library; FIG. 5B, ICCB Known Bioactives and TargetMol Autophagy libraries). Compounds selected for further characterization are listed. (FIG. 5C) Clone #7 was treated with the indicated compounds, fixed and analyzed as described in FIG. 4A legend.
FIG. 6A-6C show validation of enhancers of protein secretion.
U2OS clone #7 cells were seeded in black 384-well imaging plates (Greiner bio one), 2,000 cells/well, and incubated for 24 h at 37° C. in a humidified incubator with 5% CO2. Cells were treated on the next day with the compounds from either the Prestwick library at […], the ICCB Known Bioactives library at 1/100^e or 1/1000^e, or the autophagy compound library at 10 μM or 1 μM for 4 h. […] Cells were then fixed as described above and processed for subsequent automated image acquisition using a robot-assisted IXM XL BioImager (Molecular Devices, Sunnyvale, CA, USA) equipped with a Sola light source (Lumencor, Beaverton, OR, USA), adapted excitation and emission filters (Semrock) a 16-bit monochrome sCMOS PCO.edge 5.5 camera (PCO, Kelheim, Germany). A 20× PlanAPO objective (Nikon, Tokyo, Japan) was used to acquire a minimum of 4 view fields in each well. […] Nuclei were first detected using Hoechst 33342 signal and used as a marker to detect cytoplasmic areas based on GFP signal, allowing for the evaluation of cytoplasmic GFP intensity. Data were thereafter extracted and statistically evaluated using R (https://www.r-project.org). […]
Medium- and high-throughput screenings often yield false positive and negative hits, calling for independent validation in low-throughput experiments with orthogonal technologies. In a first round of experiments, we evaluated the effects of shortlisted compounds with potential antibody secretion enhancer activity. […]

[4] = 4 h compound, then 40 μM biotin 1 h
[5] = ICCB Known Bioactives and TargetMol Autophagy libraries, 4 h compound, then 40 μM biotin 1 h

| Molecule | secretion activator at both low and high concentration (consistently decreased fluorescent signal, among 20 best activators) [1, 4] | decrease of intracytoplasmic GFP fluorescence signal (biotin-stimulated RUSH system) [1] | also measured |
| --- | --- | --- | --- |
| C[C@H]1CCC/C=C/[C@@H]2C[C@H](O)C[C@H]2[C@H](O)/C=C/C(=O)O1 [brefeldin A] | – | – | inhibition of the biotin-induced decrease of the GFP signal ([1]; 4 h compound, then 40 μM biotin 1 h, screening): inhibited the biotin-induced decrease of the GFP signal |
| O=C(O)CCNC(=O)c1ccc(/N=N/c2ccc(O)c(C(=O)O)c2)cc1 [balsalazide sodium] | fulfilled these criteria | – | – |
| C[C@]12CC[C@H](O)C[C@H]1CC[C@@H]1[C@@H]2C[C@@H](O)[C@]2(C)[C@@H](C3=CC(=O)OC3)CC[C@]12O [digoxigenin, 3-[(3S,5R,8R,9S,10S,12R,13S,14S,17R)-3,12,14-trihydroxy-10,13-dimethyl-1,2,3,4,5,6,7,8,9,11,12,15,16,17-tetradecahydrocyclopenta[a]phenanthren-17-yl]-2H-furan-5-one] | fulfilled these criteria | consistently decreased intracytoplasmic GFP fluorescence | – |
| C[C@@H]1C[C@@H]([C@H](O)CC2CC(=O)NC(=O)C2)C(=O)[C@@H](C)C1 [cycloheximide, 4-[(2R)-2-[(1S,3S,5S)-3,5-dimethyl-2-oxocyclohexyl]-2-hydroxyethyl]piperidine-2,6-dione] | fulfilled these criteria | consistently decreased intracytoplasmic GFP fluorescence | – |
| CCC1(CC)C(=O)C=CNC1=O [pyrithyldione, 3,3-diethyl-1H-pyridine-2,4-dione] | fulfilled these criteria | consistently decreased intracytoplasmic GFP fluorescence | – |
| O[C@H]1[C@H]2c3cc4c(cc3CN3CCC(=C[C@@H]1O)[C@H]23)OCO4 [lycorine, 3,12-Didehydro-2′H-[1,3]dioxolo[4′,5′:9,10]galanthan-1α,2β-diol] | – | consistently decreased intracytoplasmic GFP fluorescence | RUSH antibody titers in treated cell culture supernatant ([2]; summary): shown to increase RUSH antibody titers; effect on antibody secretion compared with sodium butyrate ([2]; 1 and 50 μM): milder than that of sodium butyrate; antibody secretion-stimulatory activity ([2]; lycorine tested at both 1 and 50 μM, 4 h compound, biotin 1 h): considered to be active; efficiency as secretion activator, high concentration ([1]; ICCB Known Bioactives and TargetMol Autophagy libraries, high concentration): not among the 20 most active compounds at the high concentration; efficiency as secretion activator, low concentration ([1]; ICCB Known Bioactives and TargetMol Autophagy libraries, low concentration): more efficient than any other compound at low concentration; SCAP inhibition (SCAP; orally active): potent and orally active SCAP inhibitor; SCAP protein level (SCAP; without changing its transcription): downregulates; effect on secretion by cell imaging [3]: secretion activator effect |
| verteporfin | fulfilled these criteria | – | phototoxicity leading to GFP bleaching ([1]; data not shown): phototoxicity that leads to GFP bleaching |
| O=C1CC(c2ccccc2)Oc2cc(O)cc(O)c21 (stereo not drawn) [pinocembrin, 5,7-Dihydroxy-2-phenyl-2,3-dihydro-4H-chromen-4-one] | – | consistently decreased intracytoplasmic GFP fluorescence | activity as secretion activator at both low and high concentrations [1, 5]: active at both low and high concentrations |
| CC[C@H]1CN2CCc3cc(OC)c(OC)cc3[C@@H]2C[C@@H]1C[C@H]1NCCc2cc(OC)c(OC)cc21 [emetine] | – | – | activity as secretion activator at both low and high concentrations [1, 5]: active at both low and high concentrations |
| C1N2CN3CN1CN(C2)C3 [methenamine, 1,3,5,7-tetrazatricyclo[3.3.1.13,7]decane] | fulfilled these criteria | consistently decreased intracytoplasmic GFP fluorescence | – |
